# Source: patent US20240360193A1, “POLYPEPTIDE DERIVATIVE WITH DUAL GLP-1R AND GIPR TARGETING AGONISTIC EFFECT, AND PREPARATION METHOD AND USE THEREOF” (NANJING ZHIHE MEDICINE TECHNOLOGY CO., LTD., priority 2021, published 2024)
# Where two headings read alike, the source gives them in different places. Square brackets hold non-standard residues; d marks the D form. Peptide text beside a SMILES is read from it. * marks the point of attachment. X1 = O=C(O)CCCCCCCCCCCCCCCCCCC(=O)NC(CCC(=O)NCCOCCOCCNC(=O)COCCOCC(=O)*)C(=O)O; Aib = CC(C)(N)C(=O)O
# Columns and labels:
# [1] = in vivo; set-up: species or system SD rats; conditions: rat, sc, 1.35 mg/kg; for MRT: male, SD
# Protocol: The polypeptide derivative (1) and Tirzepatide were subcutaneously administered to male rats respectively in a single dose, blood samples of the male rats were then collected at different time points, and a concentration of the compound in plasma was determined by LC-MS/MS and related pharmacokinetic parameters were calculated, to investigate the pharmacokinetic characteristics of the compound in the rats.
# 16 male SD rats were randomly divided into two groups of eight rats each based on body weights. The rats were fasted for 12 h to 14 h, but water was allowed, one day before the administration. The rats were given food 4 h after the administration.
# Sample collection: Before and after the administration, 0.1 mL of blood was sampled from the orbit of each rat under isoflurane anaesthesia, and then added in an EDTAK2 centrifuge tube in an ice bath to be centrifuged at 4° C. at 5000 rpm for 10 min. Then, plasma was collected.
# Time points for blood collection of SC groups are 0, 5 min, 15 min, 30 min, 1 h, 2 h, 4 h, 6 h, 8 h, 24 h, 28 h, 32 h, and 48 h. All plasma samples were stored at −80° C. before analysis and testing.
# The software Analyst 1.5.1 (Applied Biosystem) was used for data collection and system control. Automatic chromatographic peak integration was used for the sample. The sample concentration was regressed with a ratio of the sample peak area to the internal standard peak area as an index. Linear regression was used with a weighting factor of 1/X^2. Pharmacokinetic parameters were analyzed and processed with a non-compartmental model by using WinNonlin Professional v6.3 (Pharsight, USA). Cmax is a measured maximum plasma concentration. An area AUC(0→t) under a plasma concentration-time curve is obtained through ladder-shape calculation. Tmax is a time of a peak plasma concentration after the administration. The experimental data was expressed as “mean±standard deviation” (Mean±SD, n≥8) or “mean” (Mean, n=8).
# Based on the plasma concentration data, the pharmacokinetic parameters after the administration calculated with the on-compartmental model by using WinNonlin V6.3 are shown in the following table.
# [2] = set-up: species or system humans; conditions: human, in vivo
# Excerpt: According to disclosed data, an average clinical half-life of the control Tirzepatide in humans is 5.0 days.
# [3] = human, in vivo; cited from earlier work
Structure (SMILES),MRT [1] [h],AUC(0-inf) [1] [ng·h/mL],AUC(0-t) [1] [ng·h/mL],AUMC0-inf [1] [h · h · ng · mL^−1],AUMC0-t [1] [h · h · ng · mL^−1],Cmax [1] [ng/mL],Kel [1] [h⁻¹],Tmax [1] [h],half-life [1] [h],half-life [2] [h],average clinical half-life in humans [3] [h]
CC[C@H](C)[C@H](NC(=O)[C@H](CCCCN)NC(=O)[C@H](CC(=O)O)NC(=O)[C@H](CC(C)C)NC(=O)C(C)(C)NC(=O)[C@@H](NC(=O)[C@H](CO)NC(=O)[C@H](Cc1ccc(O)cc1)NC(=O)[C@H](CC(=O)O)NC(=O)[C@H](CO)NC(=O)[C@@H](NC(=O)[C@H](Cc1ccccc1)NC(=O)[C@@H](NC(=O)CNC(=O)[C@H](CC(=O)O)NC(=O)C(C)(C)NC(=O)[C@@H](N)Cc1ccc(O)cc1)[C@@H](C)O)[C@@H](C)O)[C@@H](C)CC)C(=O)N[C@@H](C)C(=O)N[C@@H](CCC(N)=O)C(=O)N[C@@H](CCCCNC(=O)COCCOCC(=O)NCCOCCOCCNC(=O)CCC(NC(=O)CCCCCCCCCCCCCCCCCCC(=O)O)C(=O)O)C(=O)N[C@@H](C)C(=O)N[C@@H](Cc1ccccc1)C(=O)N[C@H](C(=O)N[C@@H](CCC(N)=O)C(=O)N[C@@H](Cc1c[nH]c2ccccc12)C(=O)N[C@@H](CC(C)C)C(=O)N[C@@H](CC(C)C)C(=O)N[C@@H](C)C(=O)NCC(=O)NCC(=O)N1CCC[C@H]1C(=O)N[C@@H](CO)C(=O)N[C@@H](CO)C(=O)NCC(=O)N[C@@H](C)C(=O)N1CCC[C@H]1C(=O)N1CCC[C@H]1C(=O)N1CCC[C@H]1C(=O)N[C@@H](CO)C(N)=O)C(C)C (some centres unmarked) [Polypeptide derivative (1)] (H-Y[Aib]DGTFTSDYSI[Aib]LDKIAQK(X1)AFVQWLLAGGPSSGAPPPS-NH2),33.6,89700,70400,3022264,1621331,2070,0.0421,25.3,16.7,189,–
CC[C@H](C)[C@H](NC(=O)[C@H](CC(C)C)NC(=O)[C@H](Cc1c[nH]c2ccccc12)NC(=O)[C@H](CCC(N)=O)NC(=O)[C@@H](NC(=O)[C@H](Cc1ccccc1)NC(=O)[C@H](C)NC(=O)[C@H](CCCCNC(=O)COCCOCCNC(=O)COCCOCCNC(=O)CC[C@H](NC(=O)CCCCCCCCCCCCCCCCCCC(=O)O)C(=O)O)NC(=O)[C@H](CCC(N)=O)NC(=O)[C@H](C)NC(=O)[C@@H](NC(=O)[C@H](CCCCN)NC(=O)[C@H](CC(=O)O)NC(=O)[C@H](CC(C)C)NC(=O)C(C)(C)NC(=O)[C@@H](NC(=O)[C@H](CO)NC(=O)[C@H](Cc1ccc(O)cc1)NC(=O)[C@H](CC(=O)O)NC(=O)[C@H](CO)NC(=O)[C@@H](NC(=O)[C@H](Cc1ccccc1)NC(=O)[C@@H](NC(=O)CNC(=O)[C@H](CCC(=O)O)NC(=O)C(C)(C)NC(=O)[C@@H](N)Cc1ccc(O)cc1)[C@@H](C)O)[C@@H](C)O)[C@@H](C)CC)[C@@H](C)CC)C(C)C)C(=O)N[C@@H](C)C(=O)NCC(=O)NCC(=O)N1CCC[C@H]1C(=O)N[C@@H](CO)C(=O)N[C@@H](CO)C(=O)NCC(=O)N[C@@H](C)C(=O)N1CCC[C@H]1C(=O)N1CCC[C@H]1C(=O)N1CCC[C@H]1C(=O)N[C@@H](CO)C(N)=O [Tirzepatide],25.6,52100,46700,1352210,1003190,1540,0.0680,20,10.6,–,120
